The results in this text go back to ChEMBL document CHEMBL1201862, “PubChem BioAssay data set” (2004).

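Method: 48-hour compound exposure of cells in 96-well plates, five concentrations, linear interpolation of endpoints. The concentration for 50% growth inhibition is given as GI50.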 Active and inactive are the calls of the source. Rule as the data show it: active = GI50 up to about 1.1 µM and inactive = higher. Where only a bound is given, the exact number is not on record here.

Holding throughout (experiment): inhibition of tumour cell growth, NCI panel, 48 h
Test [1] relates to NCI-H522.
The subject of test [2] is IGROV-1.
Test [3] has as its system HOP-62.
For test [4], the system named is A498.
Test [5] has as its system UACC-62.
Test [6] relates to HCT-116.
Test [7] deals with NCI/ADR-RES.
Test [8] concerns TK-10.
For test [9], the system named is CCRF-CEM.
Test [10] has as its system SF-295.
Test [11] concerns K562.
Test [12] has as its system LOX IMVI.
The subject of test [13] is CAKI-1.
In test [14] the test system is SK-MEL-2.
For test [15], the system named is M14.
For test [16], the system named is SN12C.
The test system of test [17] is MDA-N.
Test [18] relates to 786-0.
Test [19] relates to RPMI-8226.

As for `C=C(C(N)=O)c1ccc([N+](=O)[O-])o1`, the GI50 was 1.97 µM (inactive) in [1]; 10.6 µM (inactive) in test [2]; 22.8 µM (inactive) in test [3]; 12.6 µM (inactive) in [4]; 7.03 µM (inactive) in [5]; 3.97 µM (inactive) in test [6]. Besides, the GI50 in test [7] was 15.5 µM (inactive); in test [8], 14.1 µM (inactive); in test [9], 3.22 µM (inactive); in [10], 42 µM (inactive); in test [11], 3.61 µM (inactive); in test [12], 10.1 µM (inactive). Further, the GI50 is 3.4 µM (inactive) in [13]; 5.93 µM (inactive) in [14]; 2.82 µM (inactive) in test [15]; 10.3 µM (inactive) in test [16]; 3 µM (inactive) in [17]; 11.2 µM (inactive) in test [18].

As for `CSC(C1c2ccccc2N(c2ccc(C)cc2)c2[nH]c(=O)n(C)c(=O)c21)S(=O)(=O)c1ccc(C)cc1` (stereo not drawn), the GI50 was 63.8 µM (inactive) in test [1]; > 100 µM (inactive) in test [2]; > 100 µM (inactive) in test [3]; > 100 µM (inactive) in test [4]; > 100 µM (inactive) in [5]; > 100 µM (inactive) in [6]. The GI50 in test [8] was > 100 µM (inactive); in test [9] it was 71.6 µM (inactive); in [10] it was > 100 µM (inactive); in test [11], > 100 µM (inactive); in test [12] it was > 100 µM (inactive); in test [13] it was > 100 µM (inactive). The GI50 is > 100 µM (inactive) in [14]; > 100 µM (inactive) in test [15]; > 100 µM (inactive) in [16]; 97.1 µM (inactive) in [19]; > 100 µM (inactive) in test [18].

Consider `COc1cc2oc(=O)cc(C)c2c(OC)c1O`, for which the GI50 in test [2] is > 100 µM (inactive); in test [3], > 100 µM (inactive); in [4], 26.1 µM (inactive); in test [5], > 100 µM (inactive); in test [6], > 100 µM (inactive); in test [7], > 100 µM (inactive). Also, the GI50 in test [8], in test [9], in test [10], in test [11], in test [12] and in test [14] was > 100 µM (inactive) in each case. In addition, the GI50 in test [15], in [16], in test [19], in [17] and in test [18] was > 100 µM (inactive) in each case.

For `C=C(C)C(O)CCC1(C)C=Cc2c(c(C)cc3c2[nH]c2ccccc23)O1` (stereo not drawn), the GI50 was 4.91 µM (inactive) in test [1]; 17.1 µM (inactive) in test [2]; 4.75 µM (inactive) in test [3]; 13.6 µM (inactive) in test [4]; 4.8 µM (inactive) in test [5]; 13.2 µM (inactive) in test [6]. The GI50 in test [7] is 8.81 µM (inactive); in test [8], > 25 µM (inactive); in [9] it was 7.74 µM (inactive); in test [10] it was 4.34 µM (inactive); in [11] it was 6.25 µM (inactive); in test [12] it was 4.12 µM (inactive). Besides, the GI50 was 5.05 µM (inactive) in [15]; 12.8 µM (inactive) in test [16]; 9.77 µM (inactive) in [19]; 3.58 µM (inactive) in [17]; 4.91 µM (inactive) in test [18].

On to `C[N+]1(CCNP(=S)(NCC[N+]2(C)Cc3c(ccc4c3OCO4)C3C2c2cc4c(cc2C[C@@H]3O)OCO4)NCC[N+]2(C)Cc3c(ccc4c3OCO4)C3C2c2cc4c(cc2C[C@@H]3O)OCO4)Cc2c(ccc3c2OCO3)C2C1c1cc3c(cc1C[C@H]2O)OCO3` (stereo partly drawn), for which the GI50 in [1], in [2], in [3], in test [4], in test [5] and in test [6] was < 0.00191 µM (active) in each case. Also, the GI50 in test [8] was < 0.00191 µM (active); in [9] it was 1.27 µM (inactive); in test [10], < 0.00191 µM (active); in test [11], < 0.00191 µM (active); in test [12], < 0.00191 µM (active); in [13], 13.2 µM (inactive). Moreover, the GI50 in [14], in [15], in test [16], in test [19] and in test [18] was < 0.00191 µM (active) each time.

Take `O=C(/C=C/c1ccccc1)CC(=O)CCC(=O)Nc1ccc(Cl)cc1`: the GI50 in [1] was > 100 µM (inactive); in [2], 86.1 µM (inactive); in test [3], 29.6 µM (inactive); in test [4] it was > 100 µM (inactive); in test [5] it was 2.69 µM (inactive); in test [6], 37.8 µM (inactive). Moreover, the GI50 in [8] was > 100 µM (inactive); in [9] it was > 100 µM (inactive); in test [10], > 100 µM (inactive); in test [11], 5.58 µM (inactive); in [12], 39.2 µM (inactive); in test [13] it was 57.8 µM (inactive). The GI50 was > 100 µM (inactive) in [14]; 28.3 µM (inactive) in test [15]; > 100 µM (inactive) in test [16]; > 100 µM (inactive) in [19]; > 100 µM (inactive) in test [18].

Take `CCCCCCCCCCCCCCCCCC(CCCCCCCCCCCCCCCCC)OP(=O)(O)O`: the GI50 in [1], in test [2], in [4], in [5], in [6] and in [8] was > 100 µM (inactive) throughout. The GI50 in test [9], in test [10], in test [11], in test [12], in [13] and in test [14] was > 100 µM (inactive) throughout. The GI50 in [15], in [16], in test [19] and in test [18] was > 100 µM (inactive) throughout.

For `COC(=O)c1cc2ccccc2c2nc3ccccc3c(Cl)c12`, the GI50 in test [1] is 32.9 µM (inactive); in test [2], > 100 µM (inactive); in test [3], > 100 µM (inactive); in test [4], > 100 µM (inactive); in test [5], > 100 µM (inactive); in test [6], 87.1 µM (inactive). Moreover, the GI50 in [8], in test [9], in [10], in test [11], in test [12] and in test [13] was > 100 µM (inactive) throughout. Further, the GI50 in test [14], in [15], in test [16], in test [19] and in test [18] was > 100 µM (inactive) each time.

For the compound `COC(=O)NC1(NC(=O)OC)NC(=O)c2cc(OC)c(OC)cc2N1`, the GI50 in test [1] is 2.54 µM (inactive); in [2] it was 32.1 µM (inactive); in test [3] it was 3.14 µM (inactive); in test [5], 30.1 µM (inactive); in test [6], 29.8 µM (inactive); in [7] it was 31.5 µM (inactive). In addition, the GI50 is > 100 µM (inactive) in test [8]; 5.21 µM (inactive) in test [9]; 23.6 µM (inactive) in test [10]; 34.2 µM (inactive) in test [11]; 62.1 µM (inactive) in test [12]; 19.2 µM (inactive) in test [13]. Also, the GI50 in test [14] is 19 µM (inactive); in test [15], 20.8 µM (inactive); in test [16], > 100 µM (inactive); in test [19], 32.5 µM (inactive); in test [17], 3.83 µM (inactive); in [18], 32.6 µM (inactive).

Turning to `Cc1ccc(NC(=O)CCc2cc(C(C)(C)C)nc(S)n2)cc1C`, the GI50 in test [1], in test [2], in [3], in test [4], in [5] and in test [6] was > 100 µM (inactive) each time. The GI50 in [8], in [9], in [10], in test [11], in test [12] and in [13] was > 100 µM (inactive) each time. The GI50 in [14], in [15], in [16], in test [19] and in test [18] was > 100 µM (inactive) throughout.

Turning to `CC(N)Cc1cccc(C(F)(F)F)c1` (stereo not drawn), the GI50 in test [1], in [2], in test [3], in test [4], in [5] and in test [6] was > 100 µM (inactive) in each case. Further, the GI50 in test [8], in [9], in test [10], in test [11], in test [12] and in test [13] was > 100 µM (inactive) throughout. The GI50 in [14], in test [15], in test [16], in test [19] and in test [18] was > 100 µM (inactive) each time.
